Test results from patent publication US7705016B2, “Regulation of food intake by modulation of long-chain fatty acyl-CoA levels in the hypothalamus” (Albert Einstein College of Medicine of Yeshiva University, priority 2003, dated 2010).

What was measured:
hypothalamic NPY mRNA = experiment: Hypothalamic NPY expression after ICV OA (northern blot); assay type: in vivo, rat; conditions: 30 nmol ICV bolus
Experimental: NPY Expression Studies. For analysis of NPY expression, we studied two groups of rats, HF55 and HF140. After three days on the respective diet regimen, ICV Vehicle (10% HPB in aCSF) or ICV OA (30 nmol) was injected as a bolus into the third cerebral ventricle one hour before the start of the dark cycle. Food was withdrawn and hypothalami were harvested 16 hrs following injection. Northern Blot Analysis. Total RNA was isolated from hypothalami and liver with Trizol (Invitrogen Corp., California, USA). NPY, Glc-6-Pase or PEPCK expression was measured by northern blot analysis. Hypothalamic RNA was analyzed using probes for prepro-NPY and β-actin. To assess the effect of ICV OA on the expression of hepatic enzymes, total RNA was isolated from freeze-clamped liver tissues from rats subjected to insulin clamp studies. Glc-6-Pase and PEPCK cDNA were obtained as previously described (Combs et al., 2001; Massillon et al., 1996; 1998). Probes were labeled with [α-^32P] dCTP using a random primer kit (Stratagene). Quantification was performed by scanning densitometry, normalizing for β-actin signal and 18S ribosomal RNA to correct for loading variabilities.

CPT1 = target: T1, CPT1 (Rattus norvegicus, UniProt P32198); experiment: CPT1 activity in arcuate nuclei and whole hypothalamus after ICV injection; assay type: in vivo; conditions: after ICV administration
T1 construct: CPT1 activity was measured in the particulate fraction of protein extracts from animals treated with ICV control injections; from tissue; host or cells: hypothalamus (arcuate nucleus) of male Sprague-Dawley rats, in vivo or ex vivo
T1 sequence (P32198 2-773): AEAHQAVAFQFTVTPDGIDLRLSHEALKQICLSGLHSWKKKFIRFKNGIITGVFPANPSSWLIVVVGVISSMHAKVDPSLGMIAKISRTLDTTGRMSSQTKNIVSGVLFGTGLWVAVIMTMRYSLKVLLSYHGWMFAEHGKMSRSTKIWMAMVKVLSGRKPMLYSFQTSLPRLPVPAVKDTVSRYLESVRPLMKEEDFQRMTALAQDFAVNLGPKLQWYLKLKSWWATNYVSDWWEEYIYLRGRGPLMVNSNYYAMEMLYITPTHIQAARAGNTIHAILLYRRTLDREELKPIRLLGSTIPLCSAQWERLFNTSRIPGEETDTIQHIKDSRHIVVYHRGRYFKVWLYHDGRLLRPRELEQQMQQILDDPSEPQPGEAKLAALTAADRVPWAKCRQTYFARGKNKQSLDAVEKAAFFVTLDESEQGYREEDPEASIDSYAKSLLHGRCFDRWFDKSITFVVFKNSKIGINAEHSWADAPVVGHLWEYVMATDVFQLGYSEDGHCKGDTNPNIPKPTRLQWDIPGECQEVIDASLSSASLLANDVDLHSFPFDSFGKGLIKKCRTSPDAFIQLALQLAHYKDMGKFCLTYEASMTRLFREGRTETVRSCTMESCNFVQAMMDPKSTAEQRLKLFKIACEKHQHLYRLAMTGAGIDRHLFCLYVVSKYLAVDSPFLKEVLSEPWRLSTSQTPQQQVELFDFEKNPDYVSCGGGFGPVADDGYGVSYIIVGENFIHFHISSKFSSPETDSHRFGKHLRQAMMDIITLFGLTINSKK
Experimental: Surgical implantation of ICV cannulae was performed on day 1 (˜3 weeks prior to the in vivo study). Full recovery of body weight and food intake was achieved by day 7. Rats randomized for ribozyme treatment received an ICV injection of CPT1L-Ribo, CPT inhibitors or controls on day 17. The experimental group treated with TDGA received ICV injection of the inhibitor on day 21, 6 hr prior to the harvesting of brains. Panels B. and C. show quantitation of CPT1L (B) and CPT1M (C) mRNA by real-time PCR. RNA was purified from individual hypothalamic nuclei (PVN, LHA, and arcuate), which were obtained by micro punch technique 3 days after ICV injection of pTarget control (▪; N=4) or CPT1LRibo (□; N=5). Copy number of CPT1 mRNA is normalized to β-Actin copy number ×10^6. […] CPT1 activity was measured in the particulate fraction of protein extracts from animals treated with ICV control injections (▪; N=6, receiving aCSF+2% DMSO or Control Ribo), TDGA ( ?; N=6), or CPTL-Ribo (□; N=5). […] Levels of stearoyl-CoA (F) and oleyl-CoA (E) respectively were measured by HPLC in arcuate of rats injected ICV with control compound (▪; ST1340) or ST1326 (□).
ICV catheters were implanted in male Sprague-Dawley rats by stereotaxic surgery (Obici et al., 2002a; Obici et al., 2001; Liu et al., 1998). […] Thus, we next measured CPT1 activity in ARC and in whole hypothalamus. […]

Compound	suppression of hypothalamic NPY mRNA expression (hypothalamic NPY mRNA; 55-kcal/d group, overnight fast) [%]	decrease in hypothalamic NPY mRNA (hypothalamic NPY mRNA; three days of voluntary overfeeding (HF140), fasted) [%]	CPT1 activity in ARC (CPT1)
CCCCCCCC/C=C\CCCCCCCC(=O)O [OA, oleic acid]	~60	28	–
CPT1L-Ribo: plasmid (pTarget, CMV promoter) expressing a hammerhead ribozyme that specifically cleaves rat CPT1L mRNA, complexed to PEI for ICV injection (DNA CUGUACCAAAGAGCUGUAGAGUCCGUGAGGACGAAACGCCGCUCACAAUG)	–	–	marked decrease
